Data taken from patent publication US6461598B1, “Process for conditioning hair” (Biosil Research Institute Inc., priority 2000, dated 2002).

Experiment: Primary eye irritation, protocol FHSLA 16 CFR 1500.42
Format: in vivo
Details: products tested at 25% actives
Protocol: Eye irritation is a major concern in the formulation of personal care products, particularly when working with quats. Primary eye irritation using the protocol outlined in FHSLA 16 CFR 1500.42 The products were tested at 25% actives.

Row | SMILES | Primary eye irritation rating | Primary eye irritation score
1 | CCCCCCCCCCCCCCCC[N+](CC)(CC)CC.[Cl-] [Cetyltriethyl ammonium Chloride] | Severely Irritating | 115.0
2 | CCCCCCCCCCCCCCCC[N+](C)(C)C.[Cl-] [Cetyltrimethyl ammonium Chloride] | Severely Irritating | 106.0
3 | CCCCCCCCCCCCCCCCCC[N+](C)(C)Cc1ccccc1.[Cl-] [Stearalkonium Chloride] | Severely Irritating | 116.5
